From patent US20230201174A1, “COMBINATION OF FINERENONE AND A SGLT2 INHIBITOR FOR THE TREATMENT AND/OR PREVENTION OF CARDIOVASCULAR AND/OR RENAL DISEASES” (BAYER AKTIENGESELLSCHAFT, priority 2020, published 2023)

Tests used:
[1] = tested on: Wistar rats with activated renin-angiotensin-aldosterone system; assay: In vivo assay for detecting natriuretic activity in conscious rats with activated RAAS; parameters: species or system rat; conditions: for Urinary Glucose concentration / Urinary K+ concentration / Urinary Na+ concentration / Urinary Volume/ body weight: 24 h urine, mean ± SEM
Experimental: Wistar rats (ca. 250-500 g body weight) were kept with free access to feed (Altromin) and drinking water. […] This sodium-reduced feed causes an activation of the RAAS in the animals during the 3 days run-in phase and therefore mimics a neuroendocrine activation which is characteristic for cardiorenal diseases. […] At the start of the test, the substance to be tested was administered by means of gavage in a volume of 2-3 ml/kg of body weight of a suitable solvent PEG400). Control animals received only solvent (‘S’ or solvent in table 2 below). Controls and substance tests were carried out in parallel on the same day. Control groups and substance-dose groups each consisted of 6 to 10 animals. During the test, the urine excreted by the animals was continuously collected in a receiver on the base of the cage.
In this comparison, eight different administrations were performed (cf. groups A to H):
Group A received the solvent (PEG400) only. This group serves as control group.
Groups B, C and D received three increasing dosages of empagliflozin (SGLT2 inhibitor) only. It serves to detect the effects of the monotherapy with SGLT2 inhibitor.
Group E received a finerenone only. It serves to detect the effect of the monotherapy with finerenone.
Groups F, G and H received finerenone and the three doses of SGLT2 inhibitor in combination, respectively. It serves to detect the effect of the combined therapy with finerenone and empagliflozin (SGLT2 inhibitor) (combination according to the invention).
(§1) After the treatment, the urinary volume, urinary glucose, urinary sodium and potassium concentrations were measured.

[2] = tested on: Zucker diabetic fatty (ZDF) rats; assay: In vivo assay for detecting natriuretic activity in chronically treated Zucker diabetic fatty rats; parameters: species or system rat; conditions: for Urinary Glucose concentration / Urinary K+ concentration / Urinary Na+ concentration / Urinary Volume/ body weight: Table 3, 24 h urine, mean ± SEM; for Urinary Glucose concentration / Urinary K+ concentration / Urinary Na+ concentration / Urinary Volume/ body weight / urinary sodium excretion higher in comparison to solvent control group A: ZDF rats treated 9 weeks; for influence on urinary glucose vs solvent, in words / influence on urinary potassium vs solvent, in words / influence on urinary sodium vs solvent, in words / influence on urinary volume vs solvent, in words: ZDF rats, chronic monotherapy 3 and 10 mg/kg/day, 9 weeks
Description: The Zucker diabetic fatty (ZDF) rat has a missense mutation in the gene coding the leptin receptor (fa/fa) and spontaneously develops insulin resistance, type 2 diabetes mellitus (T2DM), hyperlipidemia, moderate hypertension, and obesity, as well as progressive renal injury. Male homozygous animals develop diabetes mellitus from week 7 to 19 which is reflected in marked hyperglycemia. In addition to diabetic cardiac lesions (e.g. hypertrophy), renal pathology develops with proteinuria, mesangial expansion, macrophage infiltration, and interstitial fibrosis. Heterozygous animals are useful non-diabetic control animals since they develop neither obesity nor insulin resistance.
Male 6-7 weeks old obese (fa/fa) Zucker rats (Charles River) were placed on a high energy diet (Purina Rodent LabDiet 5008, PMI Nutrition. Richmond. Ind.) and were randomized to treatment groups or solvent group when the animals were hyperglycemic. Rats (n=14-16/group) received either solvent [ethanol/Solutol/H2O (10/40/50)] or test compounds in solvent once daily applied to (fa/fa) animals for 4 to 12 weeks.
During the experiment, the systolic blood pressure (determined by tail cuff), urine parameters (e.g. protein, glucose, electrolytes, creatinine, urea and uric acid) and blood plasma parameters (e.g. electrolytes, glucose, creatinine, urea and uric acid) were determined at regular intervals.
Histopathology is performed with cardiac and renal tissue from animals of treatment groups and placebo groups.
In this comparison, six different administrations were performed:
Group A received the solvent [ethanol/Solutol/H2O (10/40/50)] only. This group serves as control group.
Groups B and C received two increasing dosages of empagliflozin (SGLT2 inhibitor) only. It serves to detect the effects of the monotherapy with empagliflozin (SGLT2 inhibitor).
Groups D and E received increasing dosages of finerenone only. It serves to detect the effect of the monotherapy with finerenone.
Group F received a combination of the low dosages of empagliflozin (SGLT2 inhibitor) and finerenone, respectively. It serves to detect the effect of the combined therapy with finerenone and empagliflozin (SGLT2 inhibitor) (combination according to the invention).
as §1

[3] = tested on: hypertensive and proteinuric L-NAME treated renin-transgenic (mRen2)27 rats; assay: Non-diabetic cardiorenal rat model: L-NAME treated renin-transgenic (mRen2)27 rats; conditions: up to 7 weeks
Experimental: Cardiorenal morbidity and mortality was studied in hypertensive and proteinuric L-NAME (20 mg/L) treated renin-transgenic (mRen2)27 rats. […] Key outcome parameters included mortality, blood pressure, proteinuria, kidney histology and gene expression.
Female TGR(mRen2)27 renin rats aged 10 to 20 weeks are randomized to different pharmacological treatment groups and a placebo group. In addition, the nitrogen monoxide synthase inhibitor L-NAME is administered via the drinking water in a concentration of 20 to 100 mg/l. During the entire experiment, drinking water and feed are available ad libitum to the animals. The substances are administered via the feed or daily by gavage for 4-10 weeks. Animals treated in the same way but receiving either only the solvent or the feed without test substance serve as placebo group. During the experiment, the systolic blood pressure is determined at regular intervals using a tail cuff, and proteinuria (expressed as ratio of urinary protein concentration per urinary creatinine concentration) and urine electrolyte composition are determined by collecting the urine in metabolic cages, and mortality is registered on a daily base.
The urine volume per collection time was determined separately for each animal, and the concentration of urinary glucose and electrolyte ions excreted in the urine was measured by standard methods by a clinical-chemical analyzer system (ADVIA 2400, Siemens). The urine was typically collected for 24 hours in metabolic cages.

[4] = tested on: healthy volunteers; conditions: dose-dependently induced during the first 24 h; cited from earlier work
[5] = Table 2, monotherapy 1 mg/kg oral
[6] = Table 2 study, monotherapy: empagliflozin 1, 3, 10 mg/kg, finerenone 1 mg/kg
[7] = Table 4, monotherapy 1 mg/kg oral
[8] = Table 4 study, monotherapy: canagliflozin 1 and 3 mg/kg, finerenone 1 mg/kg
[9] = Table 5, monotherapy 1 mg/kg oral
[10] = Table 5 study, monotherapy: dapagliflozin 0.03 and 0.3 mg/kg, finerenone 1 mg/kg
[11] = Table 5 study, monotherapy: dapagliflozin all doses (0.03, 0.3, 3 mg/kg), finerenone 1 mg/kg
[12] = Table 5, monotherapy 0.03 mg/kg oral
[13] = Table 5, monotherapy 0.3 mg/kg oral
[14] = Table 5, monotherapy 3 mg/kg oral
[15] = Table 5 study, monotherapy 3 mg/kg
[16] = Table 2, monotherapy 3 mg/kg oral
[17] = Table 2, monotherapy 10 mg/kg oral

CCOc1ncc(C)c2c1[C@H](c1ccc(C#N)cc1OC)C(C(N)=O)=C(C)N2 [finerenone, (S)-4-(4-cyano-2-methoxyphenyl)-5-ethoxy-2,8-dimethyl-1,4-dihydro-1,6-naphthyridin-3-carboxamide]
Urinary Glucose concentration [1, 5]: b.d.l.
Urinary K+ concentration [1, 5]: 1.46 ± 0.12 mmol
Urinary Na+ concentration [1, 5]: 0.43 ± 0.03 mmol
Urinary Volume/ body weight [1, 5]: 0.0219 ± 0.00186 L/kg
influence on urinary glucose, in words [1, 6]: no influence
influence on urinary potassium, in words [1, 6]: no influence
influence on urinary sodium, in words [1, 6]: increase
influence on urinary volume, in words [1, 6]: no influence
Urinary Glucose concentration [1, 7]: b.d.l.
Urinary K+ concentration [1, 7]: 1.76 ± 0.11 mmol
Urinary Na+ concentration [1, 7]: 0.27 ± 0.06 mmol
Urinary Volume/ body weight [1, 7]: 0.02932 ± 0.00294 L/kg
influence on urinary potassium, in words [1, 8]: no influence
influence on urinary sodium, in words [1, 8]: weak increase
influence on urinary volume, in words [1, 8]: no influence
influence on urinary glucose, in words ([1]; Table 4 study, monotherapy: canagliflozin all doses (1, 3, 10 mg/kg), finerenone 1 mg/kg): no influence
Urinary Glucose concentration [1, 9]: b.d.l.
Urinary K+ concentration [1, 9]: 1.84 ± 0.10 mmol
Urinary Na+ concentration [1, 9]: 0.33 ± 0.43 mmol
Urinary Volume/ body weight [1, 9]: 0.02344 ± 0.00162 L/kg
influence on urinary potassium, in words [1, 10]: no influence
influence on urinary sodium, in words [1, 10]: increase
influence on urinary volume, in words [1, 10]: no influence
influence on urinary glucose, in words [1, 11]: no influence
Urinary Glucose concentration ([2]; monotherapy 3 mg/kg): 291.98 ± 19.11 mmol
Urinary K+ concentration ([2]; monotherapy 3 mg/kg): 1.94 ± 0.14 mmol
Urinary Na+ concentration ([2]; monotherapy 3 mg/kg): 1.39 ± 0.12 mmol
Urinary Volume/ body weight ([2]; monotherapy 3 mg/kg): 0.08184 ± 0.01199 L/kg
Urinary Glucose concentration ([2]; monotherapy 10 mg/kg): 272.62 ± 22.51 mmol
Urinary K+ concentration ([2]; monotherapy 10 mg/kg): 1.75 ± 0.06 mmol
Urinary Na+ concentration ([2]; monotherapy 10 mg/kg): 1.30 ± 0.08 mmol
Urinary Volume/ body weight ([2]; monotherapy 10 mg/kg): 0.05682 ± 0.00259 L/kg
urinary sodium excretion higher in comparison to solvent control group A ([2]; monotherapy 3 mg/kg): 20.1%
influence on urinary glucose vs solvent, in words [2]: no influence
influence on urinary potassium vs solvent, in words [2]: no influence
influence on urinary sodium vs solvent, in words [2]: no influence
influence on urinary volume vs solvent, in words [2]: no influence
proteinuria reduction ([3]; 1 mg/kg once daily orally): −27%
proteinuria reduction ([3]; 3 mg/kg once daily orally): −87%
renal histology parameters / renal lesions, in words ([3]; once daily orally): comparable protection from renal lesions at higher dosages
systolic blood pressure, in words ([3]; once daily orally): significantly decreased

CCOc1ccc(Cc2cc([C@@H]3O[C@H](CO)[C@@H](O)[C@H](O)[C@H]3O)ccc2Cl)cc1 [dapagliflozin, (2S,3R,4R,5S,6R)-2-[4-chloro-3-[(4-ethoxyphenyl)methyl]phenyl]-6-(hydroxymethyl)oxane-3,4,5-triol]
Urinary Glucose concentration [1, 12]: 0.72 ± 0.18 mmol
Urinary K+ concentration [1, 12]: 2.21 ± 0.16 mmol
Urinary Na+ concentration [1, 12]: 0.19 ± 0.05 mmol
Urinary Volume/ body weight [1, 12]: 0.03917 ± 0.00408 L/kg
Urinary Glucose concentration [1, 13]: 5.26 ± 0.29 mmol
Urinary K+ concentration [1, 13]: 2.43 ± 0.07 mmol
Urinary Na+ concentration [1, 13]: 0.19 ± 0.04 mmol
Urinary Volume/ body weight [1, 13]: 0.03884 ± 0.00394 L/kg
Urinary Glucose concentration [1, 14]: 9.71 ± 0.36 mmol
Urinary K+ concentration [1, 14]: 2.34 ± 0.10 mmol
Urinary Na+ concentration [1, 14]: 0.29 ± 0.05 mmol
Urinary Volume/ body weight [1, 14]: 0.04872 ± 0.00153 L/kg
influence on urinary sodium, in words [1, 15]: increase
influence on urinary volume, in words [1, 15]: increase
influence on urinary potassium, in words [1, 10]: no influence
influence on urinary sodium, in words [1, 10]: no influence
influence on urinary volume, in words [1, 10]: no influence
influence on urinary glucose, in words [1, 11]: strong increase
natriuresis, in words [4]: returned to baseline after 13 days of intervention

OC[C@H]1O[C@@H](c2ccc(Cl)c(Cc3ccc(O[C@H]4CCOC4)cc3)c2)[C@H](O)[C@@H](O)[C@@H]1O [empagliflozin, (2S,3R,4R,5S,6R)-2-[4-chloro-3-[[4-[(3S)-oxolan-3-yl]oxyphenyl]methyl]phenyl]-6-(hydroxymethyl)oxane-3,4,5-triol]
Urinary Glucose concentration [1, 5]: 0.34 ± 0.10 mmol
Urinary K+ concentration [1, 5]: 1.66 ± 0.11 mmol
Urinary Volume/ body weight [1, 5]: 0.0278 ± 0.00358 L/kg
Urinary Glucose concentration [1, 16]: 1.21 ± 0.21 mmol
Urinary K+ concentration [1, 16]: 1.74 ± 0.15 mmol
Urinary Na+ concentration [1, 16]: 0.13 ± 0.02 mmol
Urinary Volume/ body weight [1, 16]: 0.02296 ± 0.00275 L/kg
Urinary Glucose concentration [1, 17]: 4.26 ± 0.59 mmol
Urinary K+ concentration [1, 17]: 1.85 ± 0.11 mmol
Urinary Na+ concentration [1, 17]: 0.17 ± 0.03 mmol
Urinary Volume/ body weight [1, 17]: 0.02845 ± 0.00191 L/kg
influence on urinary glucose, in words [1, 6]: dose-dependent and strong increase
influence on urinary potassium, in words [1, 6]: no influence
influence on urinary sodium, in words [1, 6]: no influence
influence on urinary volume, in words [1, 6]: no influence
Urinary Glucose concentration ([2]; monotherapy 3 mg/kg): 321.55 ± 22.78 mmol
Urinary K+ concentration ([2]; monotherapy 3 mg/kg): 2.22 ± 0.13 mmol
Urinary Na+ concentration ([2]; monotherapy 3 mg/kg): 1.47 ± 0.10 mmol
Urinary Volume/ body weight ([2]; monotherapy 3 mg/kg): 0.09998 ± 0.00712 L/kg
Urinary Glucose concentration ([2]; monotherapy 10 mg/kg): 317.16 ± 25.10 mmol
Urinary K+ concentration ([2]; monotherapy 10 mg/kg): 2.64 ± 0.20 mmol
Urinary Na+ concentration ([2]; monotherapy 10 mg/kg): 2.05 ± 0.27 mmol
Urinary Volume/ body weight ([2]; monotherapy 10 mg/kg): 0.11038 ± 0.00455 L/kg
urinary sodium excretion higher in comparison to solvent control group A ([2]; monotherapy 3 mg/kg): 27.2%
influence on urinary glucose vs solvent, in words [2]: increases
influence on urinary potassium vs solvent, in words [2]: increases
influence on urinary sodium vs solvent, in words [2]: increases
influence on urinary volume vs solvent, in words [2]: increases
proteinuria reduction ([3]; 3 mg/kg once daily orally): −38%
proteinuria reduction ([3]; 10 mg/kg once daily orally): −64%
glucosuric action, in words ([3]; once daily orally): strongly glucosoric
renal histology parameters / renal lesions, in words ([3]; once daily orally): comparable protection from renal lesions at higher dosages
